Reference: publication PMC3073382 (Journal of medicinal chemistry, 2010)

Target: PKA (catalytic subunit) (Bos taurus, UniProt P00517)
Experiment: biochemical

IC50: 0.11 µM
SMILES: O=C(N[C@@H]1CNCCC[C@H]1OC(=O)c1cc(O)c(C(=O)c2c(O)cccc2C(=O)O)c(O)c1)c1ccc(O)cc1 [balanol]
